Measured values from patent publication US11076595B2, “1-(n,n-disubstituted carbamoyl) 4-(substituted sulfonyl)triazolin-5-one derivative, 4-(n,n-disubstituted carbamoyl) 1-(substituted sulfonyl)triazolin-5-one derivative, and herbicide containing said derivative as active ingredient” (HOKKO CHEMICAL INDUSTRY CO., LTD., priority 2017, dated 2021).

Assays:
Assay type in all cases: in vivo
[1] = test system: Monochoria vaginalis; test: Test Example 12: herbicidal effect test by treatment during growing period in paddy field; settings: 120 g/10a; treatment seven days after sowing in flooded paddy pot; assessed 14 days after treatment
Procedure, shortened: (§1)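 Puddled, fertilized paddy soil in Wagner pots, sown with 30 seeds per species at 0–1 cm and flooded to ~3 cm in a glass greenhouse. Emulsifiable concentrate dripped into water 7 days after sowing at 120 g a.i. per 10 are. Suppression % from dry weight vs untreated, 14 days post-treatment, two replicates.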

[2] = test system: Scirpus juncoides; test: as above; settings: 120 g/10a; treatment seven days after sowing in flooded paddy pot; assessed 14 days after treatment
Procedure, shortened: as §1

[3] = test system: Lindernia pyxidaria; test: as above; settings: 120 g/10a; treatment seven days after sowing in flooded paddy pot; assessed 14 days after treatment
Procedure, shortened: as §1

[4] = test system: Echinochloa crus-galli; test: as above; settings: 120 g/10a; treatment seven days after sowing in flooded paddy pot; assessed 14 days after treatment
Procedure, shortened: as §1

[5] = test system: Amaranthus viridis; test: Test Example 14: herbicidal effect test by foliage treatment in upland field; settings: 7 days after sowing, 120 g/10a, 14 days after treatment
Procedure, shortened: (§2)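 Post-sowing spray at day 7, 120 g a.i./10 are in 100 L water/10 are; alluvial soil pots, duplicate plots; endpoint day 14, % suppression from dry weight relative to untreated.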

[6] = test system: Echinochloa crus-galli; test: as above; settings: 7 days after sowing, 120 g/10a, 14 days after treatment
Procedure, shortened: as §2

[7] = test system: Chenopodium album; test: as above; settings: 7 days after sowing, 120 g/10a, 14 days after treatment
Procedure, shortened: as §2

[8] = test system: crabgrass; test: as above; settings: 7 days after sowing, 120 g/10a, 14 days after treatment
Procedure, shortened: as §2

[9] = test system: Monochoria vaginalis; test: Test Example 11: herbicidal effect test by soil treatment in paddy field; settings: 120 g/10a active ingredient, 14 days after treatment
Procedure, shortened: (§3)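 Puddled paddy soil with N:P:K 17:17:17 fertilizer in Wagner pots; 30 seeds per species sown at 0–1 cm, flooded to about 3 cm, kept in a glass greenhouse. Water-diluted emulsifiable concentrate dripped in immediately after sowing at 120 g a.i. per 10 are. Suppression from dry weight versus untreated at 14 days.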

[10] = test system: Scirpus juncoides; test: as above; settings: 120 g/10a active ingredient, 14 days after treatment
Procedure, shortened: as §3

[11] = test system: Lindernia pyxidaria; test: as above; settings: 120 g/10a active ingredient, 14 days after treatment
Procedure, shortened: as §3

[12] = test system: Echinochloa crus-galli; test: as above; settings: 120 g/10a active ingredient, 14 days after treatment
Procedure, shortened: as §3

[13] = test system: Chenopodium album; test: Test Example 13: herbicidal effect test by soil treatment in upland field; settings: 120 g/10a, 14 days after treatment
Procedure, shortened: (§4)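 Field alluvial soil in 36 cm^2 pots had 20 seeds of each weed mixed into its top 1 cm. One day after sowing, a water-diluted emulsifiable concentrate was sprayed onto the soil at 100 liter per 10 are (120 g active ingredient per 10 are), with two replicates. Weed suppression (%) was assessed after 14 days.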

[14] = test system: Amaranthus viridis; test: as above; settings: 120 g/10a, 14 days after treatment
Procedure, shortened: as §4

[15] = test system: Echinochloa crus-galli; test: as above; settings: 120 g/10a, 14 days after treatment
Procedure, shortened: as §4

[16] = test system: crabgrass; test: as above; settings: 120 g/10a, 14 days after treatment
Procedure, shortened: as §4

## CC(C)N(C(=O)n1cnn(S(=O)(=O)C(C)C)c1=O)c1ccc(Cl)cn1 [Compound 11-85]
[1]
  Weed suppression rate (%) Monochoria vaginalis: 90%
[2]
  Weed suppression rate (%) Scirpus juncoides: 70%
[3]
  Weed suppression rate (%) Lindemia pyxidaria: 90%
[4]
  Weed suppression rate (%) Echinochloa crus-galli: 90%
[5]
  herbicidal effect, Amaranthus viridis: 90%
[6]
  herbicidal effect, Echinochloa crus-galli: 80%
[7]
  herbicidal effect, Chenopodium album: 80%
[8]
  herbicidal effect, Crabgrass: 90%
[9]
  Weed suppression rate (%) Monochoria vaginalis: 80%
[10]
  Weed suppression rate (%) Scirpus juncoides: 90%
[11]
  Weed suppression rate (%) Lindemia pyxidaria: 80%
[12]
  Weed suppression rate (%) Echinochloa crus-galli: 90%
[13]
  herbicidal effect, Chenopodium album: 60%
[14]
  herbicidal effect, Amaranthus viridis: 90%
[15]
  herbicidal effect, Echinochloa crus-galli: 100%
[16]
  herbicidal effect, Crabgrass: 100%

## CC(C)N(C(=O)n1cnn(S(=O)(=O)C2CC2)c1=O)c1ncc(Cl)cc1Cl [Compound 11-234]
[1]
  Weed suppression rate (%) Monochoria vaginalis: 90%
[2]
  Weed suppression rate (%) Scirpus juncoides: 90%
[3]
  Weed suppression rate (%) Lindemia pyxidaria: 90%
[4]
  Weed suppression rate (%) Echinochloa crus-galli: 90%
[5]
  herbicidal effect, Amaranthus viridis: 90%
[6]
  herbicidal effect, Echinochloa crus-galli: 80%
[7]
  herbicidal effect, Chenopodium album: 80%
[8]
  herbicidal effect, Crabgrass: 90%
[9]
  Weed suppression rate (%) Monochoria vaginalis: 80%
[10]
  Weed suppression rate (%) Scirpus juncoides: 90%
[11]
  Weed suppression rate (%) Lindemia pyxidaria: 90%
[12]
  Weed suppression rate (%) Echinochloa crus-galli: 90%
[13]
  herbicidal effect, Chenopodium album: 80%
[14]
  herbicidal effect, Amaranthus viridis: 90%
[15]
  herbicidal effect, Echinochloa crus-galli: 80%
[16]
  herbicidal effect, Crabgrass: 90%

## Cc1ccc(N(C(=O)n2cnn(S(=O)(=O)CCl)c2=O)C(C)C)c(F)c1 [Compound 11-123]
[1]
  Weed suppression rate (%) Monochoria vaginalis: 80%
[2]
  Weed suppression rate (%) Scirpus juncoides: 90%
[3]
  Weed suppression rate (%) Lindemia pyxidaria: 80%
[4]
  Weed suppression rate (%) Echinochloa crus-galli: 90%
[5]
  herbicidal effect, Amaranthus viridis: 90%
[6]
  herbicidal effect, Echinochloa crus-galli: 80%
[7]
  herbicidal effect, Chenopodium album: 80%
[8]
  herbicidal effect, Crabgrass: 90%
[9]
  Weed suppression rate (%) Monochoria vaginalis: 80%
[10]
  Weed suppression rate (%) Scirpus juncoides: 90%
[11]
  Weed suppression rate (%) Lindemia pyxidaria: 80%
[12]
  Weed suppression rate (%) Echinochloa crus-galli: 90%
[13]
  herbicidal effect, Chenopodium album: 80%
[14]
  herbicidal effect, Amaranthus viridis: 90%
[15]
  herbicidal effect, Echinochloa crus-galli: 80%
[16]
  herbicidal effect, Crabgrass: 90%

## Cc1ccc(S(=O)(=O)n2ncn(C(=O)N(c3ccccc3)C(C)C)c2=O)cc1 [Compound 11-626]
[1]
  Weed suppression rate (%) Monochoria vaginalis: 80%
[2]
  Weed suppression rate (%) Scirpus juncoides: 90%
[3]
  Weed suppression rate (%) Lindemia pyxidaria: 80%
[4]
  Weed suppression rate (%) Echinochloa crus-galli: 90%
[5]
  herbicidal effect, Amaranthus viridis: 60%
[6]
  herbicidal effect, Echinochloa crus-galli: 40%
[7]
  herbicidal effect, Chenopodium album: 90%
[8]
  herbicidal effect, Crabgrass: 90%
[9]
  Weed suppression rate (%) Monochoria vaginalis: 70%
[10]
  Weed suppression rate (%) Scirpus juncoides: 90%
[11]
  Weed suppression rate (%) Lindemia pyxidaria: 90%
[12]
  Weed suppression rate (%) Echinochloa crus-galli: 100%
[13]
  herbicidal effect, Chenopodium album: 70%
[14]
  herbicidal effect, Amaranthus viridis: 50%
[15]
  herbicidal effect, Echinochloa crus-galli: 90%
[16]
  herbicidal effect, Crabgrass: 90%

## CC(C)N(C(=O)n1cnn(S(=O)(=O)C2CC2)c1=O)c1c(F)cc(F)cc1F [Compound 11-195]
[1]
  Weed suppression rate (%) Monochoria vaginalis: 90%
[2]
  Weed suppression rate (%) Scirpus juncoides: 90%
[3]
  Weed suppression rate (%) Lindemia pyxidaria: 70%
[4]
  Weed suppression rate (%) Echinochloa crus-galli: 100%
[5]
  herbicidal effect, Amaranthus viridis: 30%
[6]
  herbicidal effect, Echinochloa crus-galli: 100%
[7]
  herbicidal effect, Chenopodium album: 70%
[8]
  herbicidal effect, Crabgrass: 100%
[9]
  Weed suppression rate (%) Monochoria vaginalis: 80%
[10]
  Weed suppression rate (%) Scirpus juncoides: 100%
[11]
  Weed suppression rate (%) Lindemia pyxidaria: 100%
[12]
  Weed suppression rate (%) Echinochloa crus-galli: 100%
[13]
  herbicidal effect, Chenopodium album: 90%
[14]
  herbicidal effect, Amaranthus viridis: 90%
[15]
  herbicidal effect, Echinochloa crus-galli: 100%
[16]
  herbicidal effect, Crabgrass: 100%

## CCS(=O)(=O)n1ncn(C(=O)N(c2ccc(F)cc2F)C(C)C)c1=O [Compound 11-46]
[1]
  Weed suppression rate (%) Monochoria vaginalis: 90%
[2]
  Weed suppression rate (%) Scirpus juncoides: 90%
[3]
  Weed suppression rate (%) Lindemia pyxidaria: 100%
[4]
  Weed suppression rate (%) Echinochloa crus-galli: 100%
[5]
  herbicidal effect, Amaranthus viridis: 60%
[6]
  herbicidal effect, Echinochloa crus-galli: 100%
[7]
  herbicidal effect, Chenopodium album: 90%
[8]
  herbicidal effect, Crabgrass: 100%
[9]
  Weed suppression rate (%) Monochoria vaginalis: 100%
[10]
  Weed suppression rate (%) Scirpus juncoides: 90%
[11]
  Weed suppression rate (%) Lindemia pyxidaria: 100%
[12]
  Weed suppression rate (%) Echinochloa crus-galli: 100%
[13]
  herbicidal effect, Chenopodium album: 100%
[14]
  herbicidal effect, Amaranthus viridis: 100%
[15]
  herbicidal effect, Echinochloa crus-galli: 100%
[16]
  herbicidal effect, Crabgrass: 100%

## CC(C)N(C(=O)n1cnn(S(=O)(=O)C(C)C)c1=O)c1ccc(F)cc1Cl [Compound 11-66]
[1]
  Weed suppression rate (%) Monochoria vaginalis: 80%
[2]
  Weed suppression rate (%) Scirpus juncoides: 90%
[3]
  Weed suppression rate (%) Lindemia pyxidaria: 80%
[4]
  Weed suppression rate (%) Echinochloa crus-galli: 90%
[5]
  herbicidal effect, Amaranthus viridis: 90%
[6]
  herbicidal effect, Echinochloa crus-galli: 80%
[7]
  herbicidal effect, Chenopodium album: 80%
[8]
  herbicidal effect, Crabgrass: 90%
[9]
  Weed suppression rate (%) Monochoria vaginalis: 80%
[10]
  Weed suppression rate (%) Scirpus juncoides: 90%
[11]
  Weed suppression rate (%) Lindemia pyxidaria: 80%
[12]
  Weed suppression rate (%) Echinochloa crus-galli: 90%
[13]
  herbicidal effect, Chenopodium album: 80%
[14]
  herbicidal effect, Amaranthus viridis: 90%
[15]
  herbicidal effect, Echinochloa crus-galli: 80%
[16]
  herbicidal effect, Crabgrass: 90%

## CC(C)N(C(=O)n1cnn(S(=O)(=O)C2CC2)c1=O)c1ccc(F)cc1F [Compound 11-142, 1-cyclopropylsulfonyl-N-(2,4-difluorophenyl)-N-isopropyl-5-oxo-1,2,4-triazole-4-carboxamide]
[1]
  Weed suppression rate (%) Monochoria vaginalis: 90%
[2]
  Weed suppression rate (%) Scirpus juncoides: 80%
[3]
  Weed suppression rate (%) Lindemia pyxidaria: 80%
[4]
  Weed suppression rate (%) Echinochloa crus-galli: 100%
[5]
  herbicidal effect, Amaranthus viridis: 90%
[6]
  herbicidal effect, Echinochloa crus-galli: 80%
[7]
  herbicidal effect, Chenopodium album: 80%
[8]
  herbicidal effect, Crabgrass: 90%
[9]
  Weed suppression rate (%) Monochoria vaginalis: 90%
[10]
  Weed suppression rate (%) Scirpus juncoides: 100%
[11]
  Weed suppression rate (%) Lindemia pyxidaria: 100%
[12]
  Weed suppression rate (%) Echinochloa crus-galli: 100%
[13]
  herbicidal effect, Chenopodium album: 80%
[14]
  herbicidal effect, Amaranthus viridis: 90%
[15]
  herbicidal effect, Echinochloa crus-galli: 80%
[16]
  herbicidal effect, Crabgrass: 90%

## Cc1ccccc1S(=O)(=O)n1ncn(C(=O)N(c2ccc(F)cc2F)C(C)C)c1=O [Compound 11-623]
[1]
  Weed suppression rate (%) Monochoria vaginalis: 100%
[2]
  Weed suppression rate (%) Scirpus juncoides: 90%
[3]
  Weed suppression rate (%) Lindemia pyxidaria: 100%
[4]
  Weed suppression rate (%) Echinochloa crus-galli: 100%
[5]
  herbicidal effect, Amaranthus viridis: 40%
[6]
  herbicidal effect, Echinochloa crus-galli: 80%
[7]
  herbicidal effect, Chenopodium album: 40%
[8]
  herbicidal effect, Crabgrass: 60%
[9]
  Weed suppression rate (%) Monochoria vaginalis: 90%
[10]
  Weed suppression rate (%) Scirpus juncoides: 90%
[11]
  Weed suppression rate (%) Lindemia pyxidaria: 100%
[12]
  Weed suppression rate (%) Echinochloa crus-galli: 100%
[13]
  herbicidal effect, Chenopodium album: 0%
[14]
  herbicidal effect, Amaranthus viridis: 0%
[15]
  herbicidal effect, Echinochloa crus-galli: 100%
[16]
  herbicidal effect, Crabgrass: 90%

## CC(C)N(C(=O)n1cnn(S(=O)(=O)C2CC2)c1=O)c1c(F)cccc1F [Compound 11-191]
[1]
  Weed suppression rate (%) Monochoria vaginalis: 90%
[2]
  Weed suppression rate (%) Scirpus juncoides: 90%
[3]
  Weed suppression rate (%) Lindemia pyxidaria: 90%
[4]
  Weed suppression rate (%) Echinochloa crus-galli: 100%
[5]
  herbicidal effect, Amaranthus viridis: 60%
[6]
  herbicidal effect, Echinochloa crus-galli: 100%
[7]
  herbicidal effect, Chenopodium album: 60%
[8]
  herbicidal effect, Crabgrass: 100%
[9]
  Weed suppression rate (%) Monochoria vaginalis: 90%
[10]
  Weed suppression rate (%) Scirpus juncoides: 100%
[11]
  Weed suppression rate (%) Lindemia pyxidaria: 100%
[12]
  Weed suppression rate (%) Echinochloa crus-galli: 100%
[13]
  herbicidal effect, Chenopodium album: 70%
[14]
  herbicidal effect, Amaranthus viridis: 70%
[15]
  herbicidal effect, Echinochloa crus-galli: 100%
[16]
  herbicidal effect, Crabgrass: 100%
